pIC50: −log10 of the molar value. Converted amounts (≈) assume the structure as drawn. Where two headings read alike, the source gives them in different places.
Columns and labels:
Solubility at pH 6.8 = type: physicochemical
Source text: The physicochemical properties of relevance for the absorption of the compound, such as the solubility and the membrane permeability, especially at a pH close to neutral pH can be measured using the procedure as described by L. ZHOU et al. in JOURNAL OF PHARMACEUTICAL SCIENCES, VOL. 96, NO. 11, p. 3052-3071 (2007) for the solubility at pH 6.8 and the procedure as described by F. Wohnsland and B. Faller in Journal of Medicinal Chemistry Vol 44, p. 923-930 (2001) for the Parallel Artificial Membrane Permeability Assay (PAMPA) at pH 6.8.

PI3K delta = target: T1, PI3K delta (Homo sapiens, UniProt O00329); test: PI3K delta kinase assay (Kinase-Glo luminescence); type: biochemical
T1 construct: for the full-length p110-d subunit are generated and fused by overlapping PCR; p85(iSH2) fusion partner (see partner chain) (N); His tag (C); made in house; host or cells: baculovirus; Tn5 (Trichoplusia ni) or TiniPro insect cells
Method: (§1) In a more preferred assay, the kinase reaction is performed in a final volume of 10 μL per well of a low volume non binding CORNING, 384 well black plate (Cat. No. #3676). The final concentrations of ATP and phosphatidyl inositol (PI) in the assay are 1 μM and 10 μg/mL respectively. The reaction is started by the addition of ATP.
(§2) The components of the assay are added per well as follows:
(§3) […] in 90% DMSO per well, in columns 1-20, 8 concentrations (1/3 and 1/3.33 serial dilution step) in single. • Low control: […] of 90% DMSO in half the wells of columns 23-24 (0.45% in final). • High control: […] of reference compound (e.g. compound of Example 7 in WO 2006/122806) in the other half of columns 23-24 (2.5 μM in final). • Standard: […] of reference compound as just mentioned diluted as the test compounds in columns 21-22 • 20 mL ‘buffer’ are prepared per assay: • 200 μL of 1M TRIS HCl pH7.5 (10 mM in final) • 60 μL of 1M MgCl2 (3 mM in final) • 500 μL of 2M NaCl (50 mM in final) • 100 μL of 10% CHAPS (0.05% in final) • 200 μL of 100 mM DTT (1 mM in final) • 18.94 mL of nanopure water • 10 mL ‘PI’ are prepared per assay: • 200 μL of 1 mg/ml L-alpha-Phosphatidylinositol (Liver Bovine, Avanti Polar Lipids Cat. No. 840042C MW=909.12) prepared in 3% OctylGlucoside (10 μg/ml in final) • 9.8 mL of ‘buffer’ • 10 mL ‘ATP’ are prepared per assay: • 6.7 μL of 3 mM stock of ATP giving a final concentration of 1 μM per well • 10 mL of ‘buffer’ • 2.5 mL of each PI3K construct are prepared per assay in ‘PI’ with the following final concentration: • 10 nM PI3K alfa EMV B1075 • 25 nM beta EMV BV949 • 10 nM delta EMV BV1060 • 150 nM gamma EMV BV950 • 5 μL of ‘PI/PI3K’ are added per well. • 5 μl ‘ATP’ are added per well to start the reaction. • The plates are then incubated at room temperature for 60 minutes (alfa, beta, delta) or 120 minutes (gamma). • The reaction is terminated by the addition of 10 μL Kinase-Glo (Promega Cat. No. #6714). • The assay plates are read after 10 minutes in Synergy 2 reader (BioTek, Vermont USA) with an integration time of 100 milliseconds and sensitivity set to 191. • Output: The High control is around 60'000 counts and the Low control is 30'000 or lower • This luminescence assay gives a useful Z′ ratio between 0.4 and 0.7
PI3Kγ BV-1060 p85(iSH2)-Gly Linker-p110d(Full-Length)-C-Term his Tag
(§4) IC50 is determined by a four parameter curve fitting routine that comes along with “excel fit”. […] Alternatively, IC50 values are calculated using idbsXLfit model 204, which is a 4 parameter logistic model.

PI3K alpha = target: T2, PI3K alpha (Homo sapiens, UniProt P42336); test: PI3K alpha kinase assay (Kinase-Glo luminescence); type: biochemical
T2 construct: p85(iSH2) fusion partner (see partner chain) (N); His tag (C); made in house; host or cells: baculovirus; Tn5 (Trichoplusia ni) or TiniPro insect cells
In short: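 Enzyme 10 nM PI3Kα EMV B1075; ATP 1 μM; PI 10 μg/mL; Tris-HCl pH 7.5 10 mM, MgCl2 3 mM, NaCl 50 mM, CHAPS 0.05%, DTT 1 mM; 60 min RT; Kinase-Glo luminescence; 4-parameter IC50 fit, 8 concentrations, single points.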

PI3K beta = target: T3, PI3K beta (Homo sapiens, UniProt P42338); test: PI3K beta kinase assay (Kinase-Glo luminescence); type: biochemical
T3 construct: for the full-length p110-b subunit are generated and fused by overlapping PCR; p85(iSH2) fusion partner (see partner chain) (N); His tag (C); made in house; host or cells: baculovirus; Tn5 (Trichoplusia ni) or TiniPro insect cells
Method: as §1, §2, §3
PI3Kβ BV-949 p85(iSH2)-Gly Linker-p110b(Full-Length)-C-Term his Tag
as §4

[1] = system: PKB Ser473 phosphorylation in Rat1-myr-HA-p110 alpha cells; test: Reverse protein array assay, PKB Ser473 phosphorylation in Rat1-myr-p110 alpha cells; type: cell-based; conditions: 0.5 h, pAkt Ser473, 30 minutes compound incubation, read-out: p-PKB IC50
In short: (§5)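 Compound exposure lasted 30 min in Rat1 cells bearing membrane-targeted HA-p110 isoforms, using 8 serial concentrations. Arrayed lysates, each spotted at four dilutions, gave relative fluorescence signals for phospho-Ser473 PKB.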

[2] = system: PKB Ser473 phosphorylation in Rat1-myr-HA-p110 beta cells; test: Reverse protein array assay, PKB Ser473 phosphorylation in Rat1-myr-p110 beta cells; type: cell-based; conditions: 0.5 h, pAkt Ser473, 30 minutes incubation, read-out: p-PKB IC50
In short: as §5

[3] = system: PKB Ser473 phosphorylation in Rat1-myr-HA-p110 delta cells; test: Reverse protein array assay, PKB Ser473 phosphorylation in Rat1-myr-p110 delta cells; type: cell-based; conditions: read-out: p-PKB IC50
In short: as §5

[4] = system: S6 Ribosomal Protein phosphorylation Ser235/236 in TSC1 null mouse embryo fibroblast (MEF) cells; test: Reverse protein array assay, S6 Ribosomal Protein phosphorylation Ser235/236 in TSC1 null MEF cells; type: cell-based; conditions: 1 h, pS6 ribosomal protein Ser235/236, 60 minutes incubation, read-out: p-S6 IC50
In short: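 TSC1−/− MEFs, seeded and held ≥20 h at 37 °C/5% CO2, were exposed to 8-step serial compound dilutions (0.02% DMSO final; DMSO vehicle control) for 60 min at 37 °C. Cells were then lysed on ice for 10 min and lysates spotted onto reverse protein array chips.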

mTOR = target: T4, mTOR (Homo sapiens, UniProt P42345); test: Biochemical assay for m-TOR by TR-FRET; conditions: 8 μM ATP, 400 nM GFP-4EBP1, 0.5 nM mTOR
T4 construct: purchased Invitrogen Corporation (Carlsbad/CA, USA) PV4753
In short: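 Enzyme 0.5 nM, GFP-4EBP1 400 nM, ATP 8 μM (all final); 50 mM HEPES pH 7.5, 10 mM MnCl2, 1 mM DTT; rt. Detection: Tb-α-p4EBP1 [pT46] 0.5 nM in EDTA, TR-FRET, 15 min. Reference compound on every plate, 16-point duplicate dilutions.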

[5] = pH 6.8, aqueous buffer, thermodynamic from solid, read-out: solubility

T2 sequence (P42336 with tags, fused parts or gaps limits assumed): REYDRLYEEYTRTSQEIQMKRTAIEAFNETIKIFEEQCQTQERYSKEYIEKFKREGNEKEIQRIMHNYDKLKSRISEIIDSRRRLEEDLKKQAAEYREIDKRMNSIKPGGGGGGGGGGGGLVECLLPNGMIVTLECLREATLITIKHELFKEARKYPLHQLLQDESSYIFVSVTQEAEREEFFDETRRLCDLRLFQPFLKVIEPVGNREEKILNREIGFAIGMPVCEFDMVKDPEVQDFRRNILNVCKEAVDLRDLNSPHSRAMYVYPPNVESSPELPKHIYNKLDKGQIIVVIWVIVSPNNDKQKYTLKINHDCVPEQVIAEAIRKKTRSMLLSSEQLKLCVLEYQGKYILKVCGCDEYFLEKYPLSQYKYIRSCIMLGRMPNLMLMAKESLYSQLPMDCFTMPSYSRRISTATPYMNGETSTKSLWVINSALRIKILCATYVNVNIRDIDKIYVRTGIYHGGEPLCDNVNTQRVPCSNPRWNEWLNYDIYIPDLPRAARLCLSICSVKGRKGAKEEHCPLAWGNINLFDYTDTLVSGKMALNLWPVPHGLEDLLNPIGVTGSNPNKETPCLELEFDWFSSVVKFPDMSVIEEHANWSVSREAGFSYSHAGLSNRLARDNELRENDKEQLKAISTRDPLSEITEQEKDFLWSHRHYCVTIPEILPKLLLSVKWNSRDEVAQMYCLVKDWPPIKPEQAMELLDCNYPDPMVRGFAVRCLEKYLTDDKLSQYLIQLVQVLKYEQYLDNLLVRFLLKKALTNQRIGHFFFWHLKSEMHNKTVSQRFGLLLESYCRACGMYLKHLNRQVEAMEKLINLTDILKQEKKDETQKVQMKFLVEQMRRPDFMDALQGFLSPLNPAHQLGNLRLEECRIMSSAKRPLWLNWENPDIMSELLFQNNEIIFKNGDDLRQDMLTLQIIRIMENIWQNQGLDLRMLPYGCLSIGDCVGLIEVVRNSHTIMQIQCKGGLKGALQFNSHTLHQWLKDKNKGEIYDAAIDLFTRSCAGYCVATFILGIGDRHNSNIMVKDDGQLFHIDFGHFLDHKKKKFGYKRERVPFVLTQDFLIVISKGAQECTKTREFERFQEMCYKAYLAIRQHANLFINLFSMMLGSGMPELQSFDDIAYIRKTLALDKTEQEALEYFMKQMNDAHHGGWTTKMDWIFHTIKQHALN
T1 sequence (O00329 with tags, fused parts or gaps limits assumed): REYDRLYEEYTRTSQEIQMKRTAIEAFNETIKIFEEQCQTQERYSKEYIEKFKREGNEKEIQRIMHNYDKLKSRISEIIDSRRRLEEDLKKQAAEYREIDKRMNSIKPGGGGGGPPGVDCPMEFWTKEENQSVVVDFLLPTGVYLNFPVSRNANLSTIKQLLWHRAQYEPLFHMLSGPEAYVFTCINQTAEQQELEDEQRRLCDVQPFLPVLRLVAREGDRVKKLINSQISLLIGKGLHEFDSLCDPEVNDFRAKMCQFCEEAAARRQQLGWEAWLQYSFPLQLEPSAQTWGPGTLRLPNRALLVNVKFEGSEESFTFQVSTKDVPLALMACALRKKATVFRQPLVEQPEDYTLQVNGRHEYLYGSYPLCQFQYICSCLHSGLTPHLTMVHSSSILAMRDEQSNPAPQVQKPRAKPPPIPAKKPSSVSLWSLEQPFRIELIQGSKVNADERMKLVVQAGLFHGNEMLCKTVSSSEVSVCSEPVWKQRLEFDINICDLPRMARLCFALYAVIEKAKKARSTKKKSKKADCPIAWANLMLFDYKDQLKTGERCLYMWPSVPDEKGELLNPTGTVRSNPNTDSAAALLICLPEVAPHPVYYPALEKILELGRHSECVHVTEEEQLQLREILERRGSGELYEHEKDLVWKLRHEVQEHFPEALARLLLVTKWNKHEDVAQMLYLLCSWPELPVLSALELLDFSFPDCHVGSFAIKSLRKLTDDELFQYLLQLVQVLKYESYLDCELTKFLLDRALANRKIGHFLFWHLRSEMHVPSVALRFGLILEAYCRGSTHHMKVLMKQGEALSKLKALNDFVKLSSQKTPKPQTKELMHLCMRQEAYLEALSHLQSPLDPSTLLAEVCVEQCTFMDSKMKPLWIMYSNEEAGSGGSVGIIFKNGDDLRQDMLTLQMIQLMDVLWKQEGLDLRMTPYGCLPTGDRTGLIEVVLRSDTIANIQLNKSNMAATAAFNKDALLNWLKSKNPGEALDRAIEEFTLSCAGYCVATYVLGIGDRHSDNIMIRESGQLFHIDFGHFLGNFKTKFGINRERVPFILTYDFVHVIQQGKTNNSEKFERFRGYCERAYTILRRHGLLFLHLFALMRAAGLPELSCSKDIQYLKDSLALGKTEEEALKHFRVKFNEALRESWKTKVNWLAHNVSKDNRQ
T3 sequence (P42338 with tags, fused parts or gaps limits assumed): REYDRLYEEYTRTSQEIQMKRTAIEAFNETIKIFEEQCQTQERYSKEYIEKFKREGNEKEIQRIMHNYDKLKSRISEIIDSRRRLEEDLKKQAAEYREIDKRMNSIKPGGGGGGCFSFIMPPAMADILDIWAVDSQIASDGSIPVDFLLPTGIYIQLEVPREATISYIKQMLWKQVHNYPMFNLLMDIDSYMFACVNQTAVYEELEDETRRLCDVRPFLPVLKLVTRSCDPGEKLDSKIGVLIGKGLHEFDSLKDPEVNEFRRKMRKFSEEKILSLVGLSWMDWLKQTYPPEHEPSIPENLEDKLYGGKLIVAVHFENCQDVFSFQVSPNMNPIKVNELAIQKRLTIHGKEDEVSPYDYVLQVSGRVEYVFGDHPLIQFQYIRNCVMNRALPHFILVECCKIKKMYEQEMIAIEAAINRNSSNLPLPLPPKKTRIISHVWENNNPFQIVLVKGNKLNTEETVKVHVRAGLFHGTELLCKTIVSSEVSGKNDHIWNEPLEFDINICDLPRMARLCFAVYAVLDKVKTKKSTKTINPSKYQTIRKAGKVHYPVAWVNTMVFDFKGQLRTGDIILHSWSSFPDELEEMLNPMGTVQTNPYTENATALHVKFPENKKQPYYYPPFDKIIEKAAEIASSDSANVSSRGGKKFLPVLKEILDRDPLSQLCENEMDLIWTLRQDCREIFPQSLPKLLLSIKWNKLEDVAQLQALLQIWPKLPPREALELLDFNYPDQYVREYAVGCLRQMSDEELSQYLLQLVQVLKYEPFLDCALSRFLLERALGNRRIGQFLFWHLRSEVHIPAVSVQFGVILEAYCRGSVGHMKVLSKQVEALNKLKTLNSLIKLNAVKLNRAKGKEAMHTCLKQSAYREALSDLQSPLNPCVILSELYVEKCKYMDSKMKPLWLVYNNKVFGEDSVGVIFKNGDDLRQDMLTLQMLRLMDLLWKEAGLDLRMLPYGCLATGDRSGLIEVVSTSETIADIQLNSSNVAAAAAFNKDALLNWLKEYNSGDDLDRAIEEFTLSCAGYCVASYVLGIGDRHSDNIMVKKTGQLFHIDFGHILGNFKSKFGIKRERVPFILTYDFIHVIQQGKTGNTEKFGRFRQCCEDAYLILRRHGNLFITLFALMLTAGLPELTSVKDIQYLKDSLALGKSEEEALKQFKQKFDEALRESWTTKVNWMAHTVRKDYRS
T4 sequence (P42345 1360-2549 limits assumed): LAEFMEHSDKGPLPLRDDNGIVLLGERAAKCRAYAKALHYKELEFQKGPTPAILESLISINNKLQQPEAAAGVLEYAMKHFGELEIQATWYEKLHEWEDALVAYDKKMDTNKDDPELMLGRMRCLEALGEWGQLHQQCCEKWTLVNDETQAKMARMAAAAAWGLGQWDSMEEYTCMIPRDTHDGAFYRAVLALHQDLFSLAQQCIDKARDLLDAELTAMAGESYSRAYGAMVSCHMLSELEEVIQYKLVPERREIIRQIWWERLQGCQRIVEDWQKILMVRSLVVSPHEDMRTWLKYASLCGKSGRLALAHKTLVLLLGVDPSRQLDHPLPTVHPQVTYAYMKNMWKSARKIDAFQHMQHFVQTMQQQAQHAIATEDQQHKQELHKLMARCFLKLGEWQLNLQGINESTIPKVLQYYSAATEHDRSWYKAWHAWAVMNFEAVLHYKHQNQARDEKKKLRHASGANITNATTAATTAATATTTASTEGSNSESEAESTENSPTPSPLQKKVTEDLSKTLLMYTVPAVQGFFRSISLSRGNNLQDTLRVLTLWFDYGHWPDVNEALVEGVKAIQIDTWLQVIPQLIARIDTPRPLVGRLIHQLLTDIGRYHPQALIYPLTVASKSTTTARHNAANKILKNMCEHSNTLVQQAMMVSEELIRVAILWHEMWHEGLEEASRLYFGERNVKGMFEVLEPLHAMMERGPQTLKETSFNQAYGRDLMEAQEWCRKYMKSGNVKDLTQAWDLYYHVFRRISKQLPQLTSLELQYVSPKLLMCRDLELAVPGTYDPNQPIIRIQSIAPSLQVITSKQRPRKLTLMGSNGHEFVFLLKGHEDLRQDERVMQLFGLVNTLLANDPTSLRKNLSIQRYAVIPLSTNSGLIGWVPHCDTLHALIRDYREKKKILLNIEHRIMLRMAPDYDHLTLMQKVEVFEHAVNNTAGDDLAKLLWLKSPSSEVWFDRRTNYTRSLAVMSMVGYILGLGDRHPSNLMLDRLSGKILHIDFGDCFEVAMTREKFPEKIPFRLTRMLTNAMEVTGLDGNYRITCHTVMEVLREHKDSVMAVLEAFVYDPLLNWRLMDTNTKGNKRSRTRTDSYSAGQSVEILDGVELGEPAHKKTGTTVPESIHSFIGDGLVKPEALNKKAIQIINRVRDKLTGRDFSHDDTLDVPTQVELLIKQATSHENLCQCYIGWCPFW

Compound | solubility (Solubility at pH 6.8; pH 6.8) | pIC50 (PI3K delta) | pIC50 (PI3K alpha) | pIC50 (PI3K beta) | pIC50 [1] | pIC50 [2] | pIC50 [3] | pIC50 [4] | solubility (Solubility at pH 6.8; [5]) | pIC50 (mTOR)
Cn1nccc1-n1c(=O)n(C)c2cnc3ccc(-c4ccnc(F)c4)cc3c21 [Example 11, 8-(2-Fluoro-pyridin-4-yl)-3-methyl-1-(2-methyl-2H-pyrazol-3-yl)-1,3-dihydro-imidazo[4,5-c]quinolin-2-one] | 2 µg/mL (≈ 5.34 µM) | 6.09 | – | – | – | – | – | – | – | –
COc1ccc(-c2ccc3ncc4[nH]c(=O)n(-c5cn(C)nc5C)c4c3c2)cc1OC [Example 111, 8-(3,4-Dimethoxy-phenyl)-1-(1,3-dimethyl-1H-pyrazol-4-yl)-1,3-dihydro-imidazo[4,5-c]quinolin-2-one] | – | 7.30 | 7.57 | 7.39 | 8.00 | 7.89 | 7.74 | 8.52 | – | –
Cc1nn(C(C)C)cc1-n1c(=O)n(C)c2cnc3ccc(-c4ccccn4)cc3c21 [Example 113, 1-(1-Isopropyl-3-methyl-1H-pyrazol-4-yl)-3-methyl-8-pyridin-2-yl-1,3-dihydro-imidazo[4,5-c]quinolin-2-one] | – | – | – | – | 6.09 | – | – | – | 30 µg/mL (≈ 75.3 µM) | –
CCNc1cc(-c2ccc3ncc4c(c3c2)n(-c2c(C)noc2C)c(=O)n4C)cnc1F [Example 154.2, 1-(3,5-Dimethyl-isoxazol-4-yl)-8-(5-ethylamino-6-fluoro-pyridin-3-yl)-3-methyl-1,3-dihydro-imidazo[4,5-c]quinolin-2-one] | – | 7.10 | 6.76 | 7.12 | 6.60 | 6.61 | 6.34 | 7.41 | – | –
CCOCc1cc(-c2ccc3ncc4c(c3c2)n(-c2c(C)nn(C)c2C)c(=O)n4C)cnc1N [Example 166.5, 8-(6-Amino-5-ethoxymethyl-pyridin-3-yl)-3-methyl-1-(1,3,5-trimethyl-1H-pyrazol-4-yl)-1,3-dihydro-imidazo[4,5-c]quinolin-2-one] | – | 7.48 | 7.55 | 6.65 | 6.52 | – | 6.08 | 7.04 | – | –
CNC(=O)Cc1cncc(-c2ccc3ncc4c(c3c2)n(-c2cn(C)nc2C)c(=O)n4C)c1 [Example 228, 2-{5-[1-(1,3-Dimethyl-1H-pyrazol-4-yl)-3-methyl-2-oxo-2,3-dihydro-1H-imidazo[4,5-c]quinolin-8-yl]-pyridin-3-yl}-N-methyl-acetamide] | – | 6.78 | 7.07 | – | – | – | – | – | > 441 µg/mL | –
Cc1nn(C)cc1-n1c(=O)n(C)c2cnc3ccc(-c4cncc(C(C)(C)CO)c4)cc3c21 [Example 229, 1-(1,3-Dimethyl-1H-pyrazol-4-yl)-8-[5-(2-hydroxy-1,1-dimethyl-ethyl)-pyridin-3-yl]-3-methyl-1,3-dihydro-imidazo[4,5-c]quinolin-2-one] | – | 8.30 | 8.10 | 8.10 | 6.55 | 6.56 | 6.63 | 7.96 | – | –
CNc1ncc(-c2ccc3ncc4c(c3c2)n(-c2cn(C)nc2C)c(=O)n4C)cc1COC [Example 248.3, 1-(1,3-Dimethyl-1H-pyrazol-4-yl)-8-(5-methoxymethyl-6-methylamino-pyridin-3-yl)-3-methyl-1,3-dihydro-imidazo[4,5-c]quinolin-2-one] | – | > 8.52 | 8.00 | 7.64 | 8.05 | 7.60 | 7.60 | – | – | 7.82
CNc1ncc(-c2ccc3ncc4c(c3c2)n(-c2cn(C)nc2Cl)c(=O)n4C)cc1COC [Example 248.4, 1-(3-Chloro-1-methyl-1H-pyrazol-4-yl)-8-(5-methoxymethyl-6-methylaminopyridin-3-yl)-3-methyl-1,3-dihydro-imidazo[4,5-c]quinolin-2-one] | – | > 8.52 | 8.15 | 8.10 | > 8.30 | 8.10 | 8.10 | – | – | 8.22
